The results in this text go back to ChEMBL document CHEMBL1121470, “Synthesis and antiinflammatory activity of some 2-(substituted-pyridinyl)benzimidazoles” (J Med Chem, 1980).

Structures are written as SMILES.

Data set [1] deals with Rattus norvegicus. Nature of the data set: Antiinflammatory activity by carrageenan-induced rat paw edema assay after 3 hr at 100 mg/kg concentration administered perorally. The following applies: route oral. The format is functional. In general terms: Carrageenan injected into the paw causes an acute inflammation.
Data set [2] relates to Rattus norvegicus. Nature of the data set: Antiinflammatory activity was evaluated by carrageenan-induced rat paw edema assay after 3 hr at 100 mg/kg concentration administered perorally. The format is functional. The settings on record: route oral.
Data set [3] deals with Rattus norvegicus. Nature of the data set: Antiinflammatory activity was evaluated by contund edema after 3 hr at 200 mg/kg concentration administered perorally. It counts as functional. The following applies: route oral.
Data set [4] in a line: Compound was evaluated for lethal dose in mice when administarted intraperitoneally. It counts as toxicity, organism-based. The following applies: mouse, in vivo, ip.
Data set [5] deals with Mus musculus. Nature of the data set: Compound was evaluated for analgesia at 100 mg/kg when administered perorally (- = positive mice</=1). The format is functional. The settings on record: route oral.
The subject of data set [6] is Mus musculus. Nature of the data set: Compound was evaluated for analgesia at 100 mg/kg when administered perorally (+ = positive mice >/=2). The settings on record: route oral. It counts as functional.
The test system of data set [7] is Rattus norvegicus. Nature of the data set: Compound was tested for ulcerogenicity when administered perorally. It counts as functional.
The test system of data set [8] is Rattus norvegicus. Nature of the data set: Compound was tested for analgesia by Acetic acid writhing method when administered perorally. It counts as functional. The settings on record: po.
Data set [9] deals with Rattus norvegicus. Nature of the data set: Compound was tested for inhibition of carrageenan induced edema when administered perorally. It counts as functional. The settings on record: po.
The next data set has as its target T1, Cyclooxygenase (Rattus norvegicus, UniProt P35355+Q63921).
T1 sequence (P35355 whole entry): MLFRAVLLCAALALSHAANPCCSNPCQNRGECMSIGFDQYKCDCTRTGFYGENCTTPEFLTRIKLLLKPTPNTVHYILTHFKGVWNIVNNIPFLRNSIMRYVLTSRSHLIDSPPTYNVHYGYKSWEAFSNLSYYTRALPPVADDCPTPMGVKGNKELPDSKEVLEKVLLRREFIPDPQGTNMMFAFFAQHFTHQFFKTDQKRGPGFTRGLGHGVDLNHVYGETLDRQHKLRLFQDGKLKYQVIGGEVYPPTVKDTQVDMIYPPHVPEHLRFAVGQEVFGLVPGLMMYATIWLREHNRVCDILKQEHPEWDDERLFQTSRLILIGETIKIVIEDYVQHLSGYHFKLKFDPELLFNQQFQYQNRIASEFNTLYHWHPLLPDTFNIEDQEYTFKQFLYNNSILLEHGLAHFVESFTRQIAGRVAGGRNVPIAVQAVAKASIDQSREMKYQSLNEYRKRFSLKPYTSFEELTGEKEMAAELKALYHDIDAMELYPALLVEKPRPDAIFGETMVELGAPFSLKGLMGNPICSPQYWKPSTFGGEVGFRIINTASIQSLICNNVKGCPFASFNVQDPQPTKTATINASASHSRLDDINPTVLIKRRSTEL
T1 sequence (Q63921 whole entry): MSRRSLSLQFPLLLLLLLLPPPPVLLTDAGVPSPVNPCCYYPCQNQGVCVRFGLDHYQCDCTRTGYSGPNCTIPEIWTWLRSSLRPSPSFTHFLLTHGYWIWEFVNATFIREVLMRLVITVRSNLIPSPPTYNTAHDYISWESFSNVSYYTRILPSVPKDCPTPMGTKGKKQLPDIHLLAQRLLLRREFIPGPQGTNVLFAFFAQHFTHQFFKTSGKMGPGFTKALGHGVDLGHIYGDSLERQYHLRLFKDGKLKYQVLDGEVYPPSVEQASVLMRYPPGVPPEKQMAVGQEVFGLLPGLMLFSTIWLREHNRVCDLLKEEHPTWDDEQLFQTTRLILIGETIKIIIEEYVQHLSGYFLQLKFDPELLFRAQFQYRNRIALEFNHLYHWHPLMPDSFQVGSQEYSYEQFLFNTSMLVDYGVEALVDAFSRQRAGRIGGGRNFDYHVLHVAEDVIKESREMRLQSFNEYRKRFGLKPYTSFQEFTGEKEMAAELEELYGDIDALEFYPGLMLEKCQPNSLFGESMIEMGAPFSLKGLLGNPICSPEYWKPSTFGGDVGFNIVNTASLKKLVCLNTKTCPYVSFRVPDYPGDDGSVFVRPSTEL
Nature of the data set: Compound was tested for inhibition of prostaglandin synthetase […]. It counts as protein assay.

Data set [10] is described as follows: Compound was tested for acute toxicity when administered intraperitoneally in mice. The format is organism-based. The following applies: mouse, in vivo, ip.
Data set [11] deals with Rattus norvegicus. Nature of the data set: Compound was tested for inhibition of contund edema when administered perorally. The format is functional. The following applies: po.
In data set [12] the test system is Rattus norvegicus. Nature of the data set: Compound was tested for inhibition of scald edema when administered perorally. The format is functional. The following applies: po.
Data set [13] concerns Rattus norvegicus. Nature of the data set: Compound was tested for anti-pyrexia (Yeast-induced pyrexia) when administered perorally. It counts as functional. The settings on record: po.
The subject of data set [14] is Mus musculus. Nature of the data set: Compound was evaluated for analgesia at 100 mg/kg when administered perorally (+ = positive mice >/= 2). It counts as functional. The settings on record: route oral.

Turning to `Cc1ccc(-c2nc3ccccc3n2CC(=O)N2CCN(CCO)CC2)nc1`, in the data set on Rattus norvegicus [1], the inhibition in vivo at 100 mg/kg stood at 14%.

On to `CCOC(=O)c1cccc(-c2nc3ccccc3[nH]2)n1`, for which the inhibition in vivo at 100 mg/kg in the data set with Rattus norvegicus [2] turned out to be 31%.

For `CCc1cccc(-c2nc3cc(OC)ccc3[nH]2)n1`, in the data set on Rattus norvegicus [3], the inhibition in vivo at 200 mg/kg amounted to 87%. The molecule also returned an LD50 in [4] above 300 mg/kg. In addition, the inhibition in vivo at 100 mg/kg with Rattus norvegicus [1] came out at 52%. Further, the Activity with Mus musculus [5] was 1.

As for `CCc1cccc(-c2nc3ccccc3[nH]2)n1`, the inhibition in vivo at 200 mg/kg in the data set on Rattus norvegicus [3] is 85%. The inhibition in vivo at 100 mg/kg with Rattus norvegicus [2] was 41%. The molecule also displayed an LD50 in data set [4] above 300 mg/kg.

On to `CCc1ccc(-c2nc3ccccc3[nH]2)nc1`, for which, in the data set with Mus musculus [6], the Activity came to 2. Moreover, the inhibition in vivo at 200 mg/kg in the data set on Rattus norvegicus [3] amounted to 81%. This molecule gave a UD50 in the data set with Rattus norvegicus [7] of 200 mg/kg. For the same molecule, the inhibition in vivo at 100 mg/kg in the data set on Rattus norvegicus [2] came to 44%. The LD50 in data set [4] and in [10] was 1230 mg/kg each time. The molecule also had an ED50 in the data set with Rattus norvegicus [8] of 140 mg/kg. Further, the values for the ED40 in the data set on Rattus norvegicus [9], with Rattus norvegicus [11] and in the data set on Rattus norvegicus [12] were 70 mg/kg, 142 mg/kg and 110 mg/kg, respectively. The IC50 on Cyclooxygenase was 76 µM. For the same molecule, the ED60 with Rattus norvegicus [13] is 68 mg/kg.

In the case of `Cc1cccc(-c2nc3cc(Cl)ccc3[nH]2)n1`, in the data set on Rattus norvegicus [3], the inhibition in vivo at 200 mg/kg was 95%. The same molecule registered an LD50 in data set [4] of 1230 mg/kg. Further, the inhibition in vivo at 100 mg/kg in the data set with Rattus norvegicus [1] amounted to 39%. This molecule showed an Activity in the data set with Mus musculus [5] of 1.

For the molecule `Cc1cccc(-c2nc3cc(O)ccc3[nH]2)n1`, in the data set on Rattus norvegicus [1], the inhibition in vivo at 100 mg/kg stood at 6%.

With `CCOC(=O)c1ccc(-c2nc3ccccc3[nH]2)nc1`, the inhibition in vivo at 100 mg/kg with Rattus norvegicus [2] is -16%.

Regarding `O=C(Cn1c(-c2ccccn2)nc2ccccc21)N1CCN(CCO)CC1`, the inhibition in vivo at 100 mg/kg in the data set with Rattus norvegicus [1] was -4%.

For the molecule `CCc1ccc(-c2nc3cc(Cl)ccc3[nH]2)nc1`, the inhibition in vivo at 100 mg/kg in the data set with Rattus norvegicus [1] is -2%.

In the case of `COc1ccc2[nH]c(-c3ccccn3)nc2c1`, the inhibition in vivo at 100 mg/kg in the data set on Rattus norvegicus [2] worked out at 34%.

With `CCc1ccc(-c2nc3ccccc3n2Cc2ccccc2)nc1`, the inhibition in vivo at 100 mg/kg in the data set on Rattus norvegicus [1] was -18%.

Regarding `Clc1cccc(-c2nc3ccccc3[nH]2)n1`, the inhibition in vivo at 100 mg/kg with Rattus norvegicus [2] amounted to 30%.

In the case of `Cc1cccnc1-c1nc2ccccc2[nH]1`, the inhibition in vivo at 100 mg/kg in the data set with Rattus norvegicus [2] turned out to be 17%.

As for `CCc1cccc(-c2nc3cc(C)ccc3[nH]2)n1`, the inhibition in vivo at 100 mg/kg in the data set with Rattus norvegicus [1] is 10%.

As for `COc1ccc2[nH]c(-c3cccc(C)n3)nc2c1`, the inhibition in vivo at 200 mg/kg with Rattus norvegicus [3] worked out at 39%. The same molecule showed an LD50 in data set [4] of 3730 mg/kg. For the same molecule, the inhibition in vivo at 100 mg/kg in the data set with Rattus norvegicus [1] came to 40%. The Activity in the data set with Mus musculus [5] worked out at 1.

With `COc1cccc(-c2nc3ccccc3[nH]2)n1`, in the data set with Mus musculus [14], the Activity result is recorded as “>=2”. Further, the inhibition in vivo at 100 mg/kg in the data set with Rattus norvegicus [2] was 47%. Further, the LD50 in data set [4] was above 300 mg/kg.

For `Cc1ccc2[nH]c(-c3cccc(C)n3)nc2c1`, the inhibition in vivo at 200 mg/kg in the data set with Rattus norvegicus [3] was 67%. The molecule further showed an LD50 in data set [4] of 812 mg/kg. In addition, the inhibition in vivo at 100 mg/kg in the data set with Rattus norvegicus [1] turned out to be 42%. The Activity with Mus musculus [5] is 1.

Regarding `CCc1ccc(-c2nc3ccccc3n2CC(=O)OC)nc1`, the inhibition in vivo at 100 mg/kg in the data set on Rattus norvegicus [1] was determined as 9%.

In the case of `Cc1ccc(-c2nc3cc(C)ccc3[nH]2)nc1`, the inhibition in vivo at 100 mg/kg in the data set on Rattus norvegicus [2] is 7%.

Turning to `OCc1ccc(-c2nc3ccccc3[nH]2)nc1`, in the data set with Rattus norvegicus [2], the inhibition in vivo at 100 mg/kg is -10%.

Turning to `Cc1ccc(-c2nc3ccccc3[nH]2)nc1`, the inhibition in vivo at 100 mg/kg in the data set on Rattus norvegicus [2] is 19%.

Regarding `CCc1ccc(-c2nc3cc(N)ccc3[nH]2)nc1`, in the data set on Rattus norvegicus [1], the inhibition in vivo at 100 mg/kg came out at 25%.

As for `Cc1ccc(-c2nc3ccccc3[nH]2)nc1C`, the inhibition in vivo at 100 mg/kg with Rattus norvegicus [1] was 37%.

For the molecule `CCc1ccc(-c2nc3ccccc3n2C)nc1`, the inhibition in vivo at 100 mg/kg with Rattus norvegicus [1] was found to be 5%.

`CCc1ccc(-c2nc3cc(NC(C)=O)ccc3[nH]2)nc1`: the inhibition in vivo at 100 mg/kg in the data set on Rattus norvegicus [1] was 5%.

With `NC(=O)c1cccc(-c2nc3ccccc3[nH]2)n1`, in the data set with Rattus norvegicus [2], the inhibition in vivo at 100 mg/kg worked out at 13%.

The inhibition in vivo is the relative decrease from the control value, in per cent. As usually defined, the LD50 is the dose expected to kill half of the subjects tested. Read a low LD50 as a more toxic substance. As usually defined, the ED50 is the dose at which the effect has come halfway, by size or by number of responders. Lower therefore signals greater potency. Broadly, the IC50 is the concentration needed to halve the response being measured. Higher therefore signals weaker potency in that assay.
